Assay results from EPA's ToxRefDB 2.

Key:
rat [1] = details: Sub-acute repeat dose toxicity, Oral, Gavage/Intubation, dose end: 4 day, group: systemic
rat [2] = details: Sub-acute repeat dose toxicity, Oral, Gavage/Intubation, dose end: 4 day, group: systemic; remark: listed apart in the source
rat [3] = details: Sub-acute repeat dose toxicity, Oral, Gavage/Intubation, dose end: 4 day, group: systemic; remark: listed apart in the source
rat [4] = details: Sub-acute repeat dose toxicity, Oral, Gavage/Intubation, dose end: 4 day, group: systemic; remark: listed apart in the source
rat [5] = details: Multigenerational reproductive toxicity study, sprague dawley, Oral, Feed, dose end: 3 generation
mouse = details: Carcinogenicity, cd1, Oral, Feed, dose end: 78 week, group: systemic
rat [6] = details: Multigenerational reproductive toxicity study, sprague dawley, Oral, Feed, dose end: 2 generation
dog = details: Chronic toxicity; beagle; Oral; Gavage/Intubation; dose end: 12 month; group: systemic; systemic / clinical chemistry / alkaline phosphatase (alp/alk) / alkaline phosphatase (alp/alk) + systemic / clinical chemistry / urea …
rat [7] = details: Combined chronic toxicity/carcinogenicity, sprague dawley, Oral, Feed, dose end: 24 month
rat [8] = details: Combined chronic toxicity/carcinogenicity, sprague dawley, Oral, Feed, dose end: 24 month, group: systemic
[9] = systemic / in life observation / body weight / body weight + systemic / organ weight / liver / absolute + systemic / in life observation / …
[10] = systemic / organ weight / liver / absolute
[11] = systemic / organ weight / liver / absolute + systemic / in life observation / clinical signs / salivation + systemic / pathology microscopic…
[12] = systemic / in life observation / body weight / body weight + systemic / in life observation / clinical signs / abnormal respiratory sounds…
[13] = systemic / in life observation / clinical signs / abnormal respiratory sounds + systemic / in life observation / clinical signs / fur (…
[14] = group: offspring, systemic / in life observation / body weight / offspring (pup) weight
[15] = group: offspring, systemic / in life observation / body weight / offspring (pup) weight + developmental / offspring survival late / viability index / …
[16] = group: parental, systemic / in life observation / body weight / body weight + systemic / in life observation / body weight / body weight gain
[17] = group: reproductive, reproductive / offspring survival early / live fetuses / live fetuses
[18] = systemic / in life observation / body weight / body weight gain + systemic / pathology microscopic / ovary / cyst + systemic / in life …
[19] = group: cholinesterase, cholinesterase / cholinesterase / cholinesterase / erythrocyte cholinesterase (che)
[20] = group: offspring, systemic / in life observation / body weight / offspring (pup) weight + developmental / offspring survival late / lactation index / …
[21] = group: parental, systemic / in life observation / body weight / body weight + systemic / in life observation / body weight / body weight gain + systemic / in…
[22] = group: reproductive, reproductive / offspring survival early / litter size / litter size
[23] = group: cholinesterase, cholinesterase / cholinesterase / cholinesterase / brain cholinesterase (che) + cholinesterase / cholinesterase / cholinesterase / …
[24] = group: systemic, systemic / pathology microscopic / nerve / cholesterol cleft(s) + systemic / pathology microscopic / nerve / mineralization + systemic / …

**Q.** Which results are given for `CNCc1ccc(S(C)(=O)=O)cc1Oc1ccc2c(c1)CCCC2`?
**A.** LOAEL (rat [1]; [9]): > 500 mg/kg/day; NOAEL (rat [1]; [9]): ≥ 500 mg/kg/day; LEL (rat [1]; [10]): 30 mg/kg/day; NEL (rat [1]; [10]): < 30 mg/kg/day; LEL (rat [2]; [10]): 30 mg/kg/day; NEL (rat [2]; [10]): < 30 mg/kg/day; LOAEL (rat [2]; [11]): > 100 mg/kg/day; NOAEL (rat [2]; [11]): ≥ 100 mg/kg/day; LOAEL (rat [3]; [12]): > 500 mg/kg/day; NOAEL (rat [3]; [12]): ≥ 500 mg/kg/day; LEL (rat [3]; [10]): 30 mg/kg/day; NEL (rat [3]; [10]): < 30 mg/kg/day; LOAEL (rat [4]; [13]): > 500 mg/kg/day; NEL (rat [4]; [13]): 30 mg/kg/day; NOAEL (rat [4]; [13]): ≥ 500 mg/kg/day; LEL (rat [4]; systemic / in life observation / clinical signs / salivation): 100 mg/kg/day

**Q.** How did the LEL (rat [5]; [14]) turn out when `CCSC(=O)N(CC)C1CCCCC1` [Cycloate] was run?
**A.** 24 mg/kg/day

**Q.** What about the LOAEL (rat [5]; [14]) of the same compound?
**A.** 24 mg/kg/day

**Q.** And the NEL (rat [5]; [15])?
**A.** 8 mg/kg/day

**Q.** And the NOAEL (rat [5]; [15])?
**A.** 8 mg/kg/day

**Q.** What about the LEL (rat [5]; [16]) of the same compound?
**A.** 24 mg/kg/day

**Q.** What about the LOAEL (rat [5]; [16]) of the same compound?
**A.** 24 mg/kg/day

**Q.** What about the NEL (rat [5]; [16]) of the same compound?
**A.** 8 mg/kg/day

**Q.** What about the NOAEL (rat [5]; [16]) of the same compound?
**A.** 8 mg/kg/day

**Q.** What about the LEL (rat [5]; [17]) of the same compound?
**A.** 72 mg/kg/day

**Q.** What about the LOAEL (rat [5]; [17]) of the same compound?
**A.** > 72 mg/kg/day

**Q.** What about the NEL (rat [5]; [17]) of the same compound?
**A.** 24 mg/kg/day

**Q.** And the NOAEL (rat [5]; [17])?
**A.** ≥ 72 mg/kg/day

**Q.** And the LOAEL (mouse; systemic / in life observation / body weight / body weight gain + systemic / pathology microscopic / ovary / cyst)?
**A.** 167 mg/kg/day

**Q.** And the LEL (mouse; [18])?
**A.** 167 mg/kg/day

**Q.** What about the NEL (mouse; [18]) of the same compound?
**A.** 49 mg/kg/day

**Q.** What about the NOAEL (mouse; [18]) of the same compound?
**A.** 49 mg/kg/day

**Q.** And the LEL (rat [6]; [19])?
**A.** 50 mg/kg/day

**Q.** What about the LOAEL (rat [6]; [19]) of the same compound?
**A.** > 50 mg/kg/day

**Q.** What about the NEL (rat [6]; [19]) of the same compound?
**A.** 20 mg/kg/day

**Q.** And the NOAEL (rat [6]; [19])?
**A.** ≥ 50 mg/kg/day

**Q.** What about the LEL (rat [6]; [14]) of the same compound?
**A.** 20 mg/kg/day

**Q.** And the LOAEL (rat [6]; [14])?
**A.** 20 mg/kg/day

**Q.** What about the NEL (rat [6]; [20]) of the same compound?
**A.** 2.5 mg/kg/day

**Q.** What about the NOAEL (rat [6]; [20]) of the same compound?
**A.** 2.5 mg/kg/day

**Q.** What about the LEL (rat [6]; [21]) of the same compound?
**A.** 20 mg/kg/day

**Q.** And the LOAEL (rat [6]; [21])?
**A.** 20 mg/kg/day

**Q.** And the NEL (rat [6]; [21])?
**A.** 2.5 mg/kg/day

**Q.** What about the NOAEL (rat [6]; [21]) of the same compound?
**A.** 2.5 mg/kg/day

**Q.** What about the LEL (rat [6]; [22]) of the same compound?
**A.** 50 mg/kg/day

**Q.** And the LOAEL (rat [6]; [22])?
**A.** 50 mg/kg/day

**Q.** What about the NEL (rat [6]; [22]) of the same compound?
**A.** 20 mg/kg/day

**Q.** And the NOAEL (rat [6]; [22])?
**A.** 20 mg/kg/day

**Q.** And the LEL (dog)?
**A.** 50 mg/kg/day

**Q.** What about the LOAEL (dog) of the same compound?
**A.** 50 mg/kg/day

**Q.** And the NEL (dog)?
**A.** 0.5 mg/kg/day

**Q.** And the NOAEL (dog)?
**A.** 0.5 mg/kg/day

**Q.** What about the LEL (rat [7]; [23]) of the same compound?
**A.** 8 mg/kg/day

**Q.** And the LOAEL (rat [7]; [23])?
**A.** 8 mg/kg/day

**Q.** And the NEL (rat [7]; [23])?
**A.** < 8 mg/kg/day

**Q.** And the NOAEL (rat [7]; [23])?
**A.** < 8 mg/kg/day

**Q.** What about the LEL (rat [7]; [24]) of the same compound?
**A.** 8 mg/kg/day

**Q.** What about the LOAEL (rat [7]; [24]) of the same compound?
**A.** 8 mg/kg/day

**Q.** What about the NEL (rat [7]; [24]) of the same compound?
**A.** < 8 mg/kg/day

**Q.** What about the NOAEL (rat [7]; [24]) of the same compound?
**A.** < 8 mg/kg/day

**Q.** And the LEL (rat [8]; systemic / organ weight / heart / absolute)?
**A.** 2.4 mg/kg/day

**Q.** What about the NEL (rat [8]; systemic / organ weight / heart / absolute + systemic / pathology microscopic / skeletal muscle / atrophy + systemic / pathology microscopic…) of the same compound?
**A.** 0.4 mg/kg/day

**Q.** And the LOAEL (rat [8]; systemic / pathology microscopic / spinal cord / atrophy + systemic / pathology microscopic / spinal cord / degeneration)?
**A.** 3.1 mg/kg/day

**Q.** What about the NOAEL (rat [8]; systemic / pathology microscopic / spinal cord / atrophy + systemic / pathology microscopic / spinal cord / degeneration + systemic / in …) of the same compound?
**A.** 0.5 mg/kg/day
